Test results from patent publication US9266883B2, “Ring-fused bicyclic pyridyl derivatives as FGFR4 inhibitors” (Novartis AG, priority 2013, dated 2016).
Read-outs that look alike come from different tables or passages of the source.

Experiments:
[1] = system: HuH-7 hepatocellular carcinoma cells; test: CellTiter Glo (CTG) Assay; details: Homo sapiens, Huh-7, 72 h, read-out: HUH7 proliferation (nM) CTG
[2] = biological target: FGFR4 (GST-FGFR4(388-802)) (Homo sapiens (Human), UniProt P22455); test: In-vitro biochemical kinase assay for FGFR4 (Caliper microfluidic mobility shift)
Tel-FGFR4 = Tel-FGFR4 (Homo sapiens (Human), UniProt P22455); test: In vitro cellular kinase assay for FGFR4 (BaF3-Tel-FGFR4 cells, MSD capture ELISA of tyrosine phosphorylation); type: cell-based
[3] = read-out: Biochemical FGFR4 IC50
[4] = BaF3-Tel-FGFR4 cells, 1 hour incubation, read-out: Cellular BaF3 FGFR4 IC50
[5] = biochemical FGFR4 assay, read-out: Biochemical IC50
[6] = Cellular BaF3 FGFR4 assay, read-out: Cellular IC50

Sequence of Tel-FGFR4 (P22455 other isoform, or with tags, fused parts or gaps): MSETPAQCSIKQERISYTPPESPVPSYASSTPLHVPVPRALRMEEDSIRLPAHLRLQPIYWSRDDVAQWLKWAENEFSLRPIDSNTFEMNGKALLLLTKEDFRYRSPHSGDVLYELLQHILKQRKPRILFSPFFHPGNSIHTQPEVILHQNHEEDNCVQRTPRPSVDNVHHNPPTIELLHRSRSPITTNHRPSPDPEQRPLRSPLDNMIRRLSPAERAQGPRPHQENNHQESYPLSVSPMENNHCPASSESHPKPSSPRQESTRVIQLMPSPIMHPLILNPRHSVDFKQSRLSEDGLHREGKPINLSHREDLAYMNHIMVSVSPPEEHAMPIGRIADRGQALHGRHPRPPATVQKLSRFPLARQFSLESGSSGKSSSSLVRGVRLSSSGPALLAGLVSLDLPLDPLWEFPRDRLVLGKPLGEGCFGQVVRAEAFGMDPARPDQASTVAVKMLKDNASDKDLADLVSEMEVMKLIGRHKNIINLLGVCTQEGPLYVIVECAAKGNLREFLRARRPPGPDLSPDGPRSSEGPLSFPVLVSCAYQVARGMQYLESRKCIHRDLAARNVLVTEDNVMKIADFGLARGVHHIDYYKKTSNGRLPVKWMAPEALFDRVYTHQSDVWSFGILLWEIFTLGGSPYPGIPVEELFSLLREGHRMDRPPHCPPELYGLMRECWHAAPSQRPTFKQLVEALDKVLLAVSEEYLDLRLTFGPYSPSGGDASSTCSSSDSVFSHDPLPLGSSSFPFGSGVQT
Sequence of FGFR4 (GST-FGFR4(388-802)) (P22455 388-802): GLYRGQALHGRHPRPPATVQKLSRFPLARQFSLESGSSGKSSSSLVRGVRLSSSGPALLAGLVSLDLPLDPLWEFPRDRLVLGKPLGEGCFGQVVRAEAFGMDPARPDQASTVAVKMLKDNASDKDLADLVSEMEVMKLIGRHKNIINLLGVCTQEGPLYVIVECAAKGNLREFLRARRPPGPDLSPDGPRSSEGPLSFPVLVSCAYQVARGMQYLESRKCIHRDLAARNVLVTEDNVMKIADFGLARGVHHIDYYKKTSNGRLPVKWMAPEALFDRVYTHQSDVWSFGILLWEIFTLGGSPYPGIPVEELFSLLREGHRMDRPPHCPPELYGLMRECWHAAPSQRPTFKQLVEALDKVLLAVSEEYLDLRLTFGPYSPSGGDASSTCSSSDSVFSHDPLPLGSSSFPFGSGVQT

Structure (SMILES)	IC50 [1] [nM]	IC50 [2, 5] [nM]	IC50 (Tel-FGFR4; [6]) [nM]	other results
COCCNc1cc(NC(=O)N2CCCc3cc(CN4CCCC45COC5)c(C=O)nc32)ncc1C#N [Example 193, 6-(2-oxa-5-azaspiro[3.4]octan-5-ylmethyl)-N-(5-cyano-4-((2-methoxyethyl)amino)pyridin-2-yl)-7-formyl-3,4-dihydro-1,8-naphthyridine-1(2H)-carboxamide]	2780			
CC(C)Oc1cc(NC(=O)N2CCCc3cc(CN(C)C(=O)CN(C)C)c(C=O)nc32)ncc1C#N [Example 145, N-(5-cyano-4-isopropoxypyridin-2-yl)-6-((2-(dimethylamino)-N-methylacetamido)methyl)-7-formyl-3,4-dihydro-1,8-naphthyridine-1(2H)-carboxamide]	154			IC50 [2, 3]: 0.4 nM; IC50 (Tel-FGFR4; [4]): 15 nM
CN1CCN(Cc2cc3c(nc2C=O)N(C(=O)Nc2cc(NCCOC(C)(C)C)c(C#N)cn2)CCC3)C(=O)C1 [Example 196, N-(4-((2-(tert-butoxy)ethyl)amino)-5-cyanopyridin-2-yl)-7-formyl-6-((4-methyl-2-oxopiperazin-1-yl)methyl)-3,4-dihydro-1,8-naphthyridine-1(2H)-carboxamide]	150			IC50 (Tel-FGFR4; [4]): 18 nM
COCCNc1cc(NC(=O)N2CCCc3cc(CN4CCN(C)C(C)(C)C4=O)c(C=O)nc32)ncc1C#N [Example 245, N-(5-cyano-4-((2-methoxyethyl)amino)pyridin-2-yl)-7-formyl-6-((3,3,4-trimethyl-2-oxopiperazin-1-yl)methyl)-3,4-dihydro-1,8-naphthyridine-1(2H)-carboxamide]	103			IC50 (Tel-FGFR4; [4]): 11.5 nM
COCCNc1cc(NC(=O)N2CCCc3cc(CN4CCCC4=O)c(C=O)nc32)ncc1C#N [N-(5-cyano-4-((2-methoxyethyl)amino)pyridin-2-yl)-7-formyl-6-((2-oxopyrrolidin-1-yl)methyl)-3,4-dihydro-1,8-naphthyridine-1(2H)-carboxamide]		1.1	3.6	
CN1CCN(Cc2cc3c(nc2C=O)N(C(=O)Nc2cc(NC(C)(C)C)c(C#N)cn2)CCC3)C(=O)C1 [N-(4-(tert-butylamino)-5-cyanopyridin-2-yl)-7-formyl-6-((4-methyl-2-oxopiperazin-1-yl)methyl)-3,4-dihydro-1,8-naphthyridine-1(2H)-carboxamide]		1.8	11.5	
COCCNc1cc(NC(=O)N2CCCc3cc(CN4C[C@H](N(C)C)CC4=O)c(C=O)nc32)ncc1C#N [(R)-N-(5-cyano-4-((2-methoxyethyl)amino)pyridin-2-yl)-6-((4-(dimethylamino)-2-oxopyrrolidin-1-yl)methyl)-7-formyl-3,4-dihydro-1,8-naphthyridine-1(2H)-carboxamide]		0.2	6.1	
CN1CCN(Cc2cc3c(nc2C=O)N(C(=O)Nc2cc(OCCO)c(C#N)cn2)CCC3)C(=O)C1 [Example 199, N-(5-cyano-4-(2-hydroxyethoxyl)pyridin-2-yl)-7-formyl-6-((4-methyl-2-oxopiperazin-1-yl)methyl)-3,4-dihydro-1,8-naphthyridine-1(2H)-carboxamide]				IC50 [2, 3]: 2.3 nM; IC50 (Tel-FGFR4; [4]): 19.3 nM
COC[C@@H](C)Oc1nc(NC(=O)N2CCCc3cc(CO)c(C=O)nc32)ncc1Cl [Example 59, (R)-N-(5-chloro-4-((1-methoxypropan-2-yl)oxy)pyrimidin-2-yl)-7-formyl-6-(hydroxymethyl)-3,4-dihydro-1,8-naphthyridine-1(2H)-carboxamide]				IC50 [2, 3]: 48 nM; IC50 (Tel-FGFR4; [4]): 105 nM
COCCNc1cc(NC(=O)N2CCCc3cc(-c4cn(C)nc4C)c(C=O)nc32)ncc1C#N [Example 250, N-(5-cyano-4-((2-methoxyethyl)amino)pyridin-2-yl)-6-(1,3-dimethyl-1H-pyrazol-4-yl)-7-formyl-3,4-dihydro-1,8-naphthyridine-1(2H)-carboxamide]				IC50 [2, 3]: 6.7 nM; IC50 (Tel-FGFR4; [4]): 14.5 nM
COCCNc1cc(NC(=O)N2CCCc3cc(CN(C)C(C)=O)c(C=O)nc32)ncc1C(F)(F)F [7-formyl-N-(4-((2-methoxyethyl)amino)-5-(trifluoromethyl)pyridin-2-yl)-6-((N-methylacetamido)methyl)-3,4-dihydro-1,8-naphthyridine-1(2H)-carboxamide]		2.3	11.5	
CN1CCC2(CCN(c3cc(NC(=O)N4CCCc5cc(CO)c(C=O)nc54)ncc3C#N)CC2)C1 [Example 45, N-(5-cyano-4-(2-methyl-2,8-diazaspiro[4.5]decan-8-yl)pyridin-2-yl)-7-formyl-6-(hydroxymethyl)-3,4-dihydro-1,8-naphthyridine-1(2H)-carboxamide]				IC50 [2, 3]: 21 nM; IC50 (Tel-FGFR4; [4]): 67 nM
N#Cc1cnc(NC(=O)N2CCCc3cc(CO)c(C=O)nc32)nc1O[C@H]1CCOC1 [Example 70, (S)-N-(5-cyano-4-((tetrahydrofuran-3-yl)oxy)pyrimidin-2-yl)-7-formyl-6-(hydroxymethyl)-3,4-dihydro-1,8-naphthyridine-1(2H)-carboxamide]				IC50 [2, 3]: 27 nM; IC50 (Tel-FGFR4; [4]): 43 nM

Continued, in another order:

IC50 [1] [nM]	IC50 [2, 5] [nM]	IC50 (Tel-FGFR4; [6]) [nM]	Structure (SMILES)	other results
160			COCCNc1cc(NC(=O)N2CCCc3cc(CN4C(=O)COC[C@@H]4C)c(C=O)nc32)ncc1C#N [Example 120, (S)-N-(5-cyano-4-((2-methoxyethyl)amino)pyridin-2-yl)-7-formyl-6-((3-methyl-5-oxomorpholino)methyl)-3,4-dihydro-1,8-naphthyridine-1(2H)-carboxamide]	
2850			COCCNc1cc(NC(=O)N2CCCc3cc(C(C)N(C)C(C)=O)c(C=O)nc32)ncc1C#N (racemic) [Example 135, N-(5-cyano-4-((2-methoxyethyl)amino)pyridin-2-yl)-7-formyl-6-(1-(N-methylacetamido)ethyl)-3,4-dihydro-1,8-naphthyridine-1(2H)-carboxamide]	
104			CC(C)Oc1cc(NC(=O)N2c3nc(C=O)c(CN4CCN(C)CC4=O)cc3CC[C@@H]2C)ncc1C#N [Example 227, (S)-N-(5-cyano-4-isopropoxypyridin-2-yl)-7-formyl-2-methyl-6-((4-methyl-2-oxopiperazin-1-yl)methyl)-3,4-dihydro-1,8-naphthyridine-1(2H)-carboxamide]	
1360			COCCNc1cc(NC(=O)N2CCCc3cc(-c4cccnc4)c(C=O)nc32)ncc1C#N [Example 256, N-(5-cyano-4-((2-methoxyethyl)amino)pyridin-2-yl)-7-formyl-6-(pyridin-3-yl)-3,4-dihydro-1,8-naphthyridine-1(2H)-carboxamide]	
101			COCCNc1cc(NC(=O)N2CCCc3cc(CN4C(=O)COC[C@H]4C)c(C=O)nc32)ncc1C#N [Example 118, (R)-N-(5-cyano-4-((2-methoxyethyl)amino)pyridin-2-yl)-7-formyl-6-((3-methyl-5-oxomorpholino)methyl)-3,4-dihydro-1,8-naphthyridine-1(2H)-carboxamide]	
502			CN1CCCC(COc2cc(NC(=O)N3CCCc4cc(CO)c(C=O)nc43)ncc2C#N)C1 (racemic) [Example 73, N-(5-cyano-4-((1-methylpiperidin-3-yl)methoxy)pyridin-2-yl)-7-formyl-6-(hydroxymethyl)-3,4-dihydro-1,8-naphthyridine-1(2H)-carboxamide]	
134			COCCOc1cc(NC(=O)N2c3nc(C=O)c(CN4CCN(C)CC4=O)cc3CC[C@@H]2C)ncc1C#N [Example 226, (S)-N-(5-cyano-4-(2-methoxyethoxyl)pyridin-2-yl)-7-formyl-2-methyl-6-((4-methyl-2-oxopiperazin-1-yl)methyl)-3,4-dihydro-1,8-naphthyridine-1(2H)-carboxamide]	
> 3000			N#Cc1cnc(NC(=O)N2CCCc3ccc(C=O)nc32)cc1OCC1CCCCO1 (racemic) [Example 36, N-(5-cyano-4-((tetrahydro-2H-pyran-2-yl)methoxy)pyridin-2-yl)-7-formyl-3,4-dihydro-1,8-naphthyridine-1(2H)-carboxamide]	
	3.7	7.9	N#Cc1cnc(NC(=O)N2CCCc3cc(CN4CC[C@@H](O)C4=O)c(C=O)nc32)cc1OCC(F)F [(R)-N-(5-cyano-4-(2,2-difluoroethoxyl)pyridin-2-yl)-7-formyl-6-((3-hydroxy-2-oxopyrrolidin-1-yl)methyl)-3,4-dihydro-1,8-naphthyridine-1(2H)-carboxamide]	
	0.9	328	CC(C)Oc1cc(NC(=O)N2c3nc(C=O)ccc3CCC2C)ncc1C#N (stereo not shown) [N-(5-cyano-4-isopropoxypyridin-2-yl)-7-formyl-2-methyl-3,4-dihydro-1,8-naphthyridine-1(2H)-carboxamide]	
	1.8	4.5	COC[C@@H](C)Nc1cc(NC(=O)N2CCCc3cc(CN(C)C(C)=O)c(C=O)nc32)ncc1C#N [(R)-N-(5-cyano-4-((1-methoxypropan-2-yl)amino)pyridin-2-yl)-7-formyl-6-((N-methylacetamido)methyl)-3,4-dihydro-1,8-naphthyridine-1(2H)-carboxamide]	
	0.6	4	CCC(=O)N(C)Cc1cc2c(nc1C=O)N(C(=O)Nc1cc(NCCOC)c(C#N)cn1)CCC2 [N-(5-cyano-4-((2-methoxyethyl)amino)pyridin-2-yl)-7-formyl-6-((N-methylpropionamido)methyl)-3,4-dihydro-1,8-naphthyridine-1(2H)-carboxamide]	
	0.6	4.8	COC[C@@H](C)Nc1cc(NC(=O)N2CCCc3cc(CN4CCCC4=O)c(C=O)nc32)ncc1C#N [(R)-N-(5-cyano-4-((1-methoxypropan-2-yl)amino)pyridin-2-yl)-7-formyl-6-((2-oxopyrrolidin-1-yl)methyl)-3,4-dihydro-1,8-naphthyridine-1(2H)-carboxamide]	
	2	8.6	CC(C)Nc1cc(NC(=O)N2CCCc3cc(CO)c(C=O)nc32)ncc1C#N [N-(5-cyano-4-(isopropylamino)pyridin-2-yl)-7-formyl-6-(hydroxymethyl)-3,4-dihydro-1,8-naphthyridine-1(2H)-carboxamide]	
